≈ marks a conversion by molar mass, not a printed value.
What was measured:
Staphylococcus aureus = assay: In vitro minimum inhibitory concentration against Staphylococcus aureus Smith; assay type: functional
Pseudomonas aeruginosa = assay: In vitro minimum inhibitory concentration against Pseudomonas aeruginosa IID1210; assay type: functional
Streptococcus pneumoniae = assay: In vitro minimum inhibitory concentration against Streptococcus pneumoniae type III; assay type: functional
Escherichia coli = assay: In vitro minimum inhibitory concentration against Escherichia coli NIHJ JC-2; assay type: functional
DNA gyrase = DNA gyrase (Staphylococcus aureus, UniProt P0A0K8+P20831); assay: Inhibitory concentration against DNA gyrase of Staphylococcus aureus; assay type: protein-complex assay
Chain of DNA gyrase (P0A0K8 whole entry): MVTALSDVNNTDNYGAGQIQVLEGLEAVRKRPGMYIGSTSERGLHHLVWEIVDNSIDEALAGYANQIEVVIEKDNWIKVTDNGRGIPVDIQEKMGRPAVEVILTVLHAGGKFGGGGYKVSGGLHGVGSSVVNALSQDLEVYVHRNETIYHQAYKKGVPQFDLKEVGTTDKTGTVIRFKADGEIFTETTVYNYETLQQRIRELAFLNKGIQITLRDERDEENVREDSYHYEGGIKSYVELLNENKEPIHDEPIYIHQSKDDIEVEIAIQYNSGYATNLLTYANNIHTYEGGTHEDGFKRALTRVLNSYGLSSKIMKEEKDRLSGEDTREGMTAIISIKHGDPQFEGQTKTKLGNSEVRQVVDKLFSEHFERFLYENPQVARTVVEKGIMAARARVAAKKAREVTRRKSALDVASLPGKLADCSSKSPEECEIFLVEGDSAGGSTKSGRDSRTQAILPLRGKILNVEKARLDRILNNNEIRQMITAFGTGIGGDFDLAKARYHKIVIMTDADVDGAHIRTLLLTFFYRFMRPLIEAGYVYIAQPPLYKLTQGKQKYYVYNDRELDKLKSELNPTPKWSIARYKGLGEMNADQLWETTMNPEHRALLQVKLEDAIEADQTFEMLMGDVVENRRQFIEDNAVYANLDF
Chain of DNA gyrase (P20831 whole entry): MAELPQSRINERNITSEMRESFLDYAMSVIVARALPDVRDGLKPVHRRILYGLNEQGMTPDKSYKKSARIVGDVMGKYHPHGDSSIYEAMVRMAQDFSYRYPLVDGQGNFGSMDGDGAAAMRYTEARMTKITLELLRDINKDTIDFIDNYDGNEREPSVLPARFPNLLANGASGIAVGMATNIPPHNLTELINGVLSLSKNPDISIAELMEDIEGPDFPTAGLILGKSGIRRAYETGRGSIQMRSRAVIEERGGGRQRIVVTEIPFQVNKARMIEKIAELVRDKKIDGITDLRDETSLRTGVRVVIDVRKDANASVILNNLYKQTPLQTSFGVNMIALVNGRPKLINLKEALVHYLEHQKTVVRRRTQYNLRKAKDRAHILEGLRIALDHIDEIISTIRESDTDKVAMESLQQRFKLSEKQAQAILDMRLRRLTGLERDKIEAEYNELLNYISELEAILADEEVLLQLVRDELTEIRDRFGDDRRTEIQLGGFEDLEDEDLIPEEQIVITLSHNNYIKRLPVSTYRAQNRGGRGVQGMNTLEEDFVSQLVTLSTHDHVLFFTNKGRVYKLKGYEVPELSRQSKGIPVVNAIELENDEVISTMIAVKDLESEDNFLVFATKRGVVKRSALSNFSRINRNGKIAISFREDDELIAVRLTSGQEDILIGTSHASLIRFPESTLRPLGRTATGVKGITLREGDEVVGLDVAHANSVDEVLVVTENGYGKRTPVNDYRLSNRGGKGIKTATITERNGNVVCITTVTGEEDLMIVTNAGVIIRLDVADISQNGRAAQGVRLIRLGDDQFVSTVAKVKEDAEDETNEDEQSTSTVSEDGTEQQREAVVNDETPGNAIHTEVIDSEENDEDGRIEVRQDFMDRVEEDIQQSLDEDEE

Row | SMILES | MIC (Staphylococcus aureus) | MIC (Pseudomonas aeruginosa) | MIC (Streptococcus pneumoniae) | MIC (Escherichia coli) | IC50 (DNA gyrase)
1 | COc1c(N2CCC(N)C2)c(F)cc2c(=O)c(C(=O)O)cn(/C=C/F)c12 (centres undefined) | 6.25 µg/mL (≈ 17.1 µM) | 6.25 µg/mL (≈ 17.1 µM) | 12.5 µg/mL (≈ 34.2 µM) | 0.1 µg/mL (≈ 0.274 µM) | 
2 | NC1CCN(c2cc3c(cc2F)c(=O)c(C(=O)O)cn3/C=C/F)C1 (centres undefined) | 1.56 µg/mL (≈ 4.65 µM) | 3.13 µg/mL (≈ 9.33 µM) | 6.25 µg/mL (≈ 18.6 µM) | 0.2 µg/mL (≈ 0.596 µM) | 
3 | NC1CCN(c2cc3c(cc2F)c(=O)c(C(=O)O)cn3/C=C\F)C1 (centres undefined) | 0.39 µg/mL (≈ 1.16 µM) | 0.78 µg/mL (≈ 2.33 µM) | 3.13 µg/mL (≈ 9.33 µM) | 0.05 µg/mL (≈ 0.149 µM) | 
4 | COc1c(N2CCN(C)CC2)c(F)cc2c(=O)c(C(=O)O)cn(/C=C\F)c12 | 0.39 µg/mL (≈ 1.03 µM) | 3.13 µg/mL (≈ 8.25 µM) | 3.13 µg/mL (≈ 8.25 µM) | 0.025 µg/mL (≈ 0.0659 µM) | 
5 | CN1CCN(c2c(F)cc3c(=O)c(C(=O)O)cn(/C=C\F)c3c2F)CC1 | 0.39 µg/mL (≈ 1.06 µM) | 1.56 µg/mL (≈ 4.25 µM) | 3.13 µg/mL (≈ 8.52 µM) | 0.025 µg/mL (≈ 0.0681 µM) | 197 µM
6 | NC1CCN(c2c(F)cc3c(=O)c(C(=O)O)cn(/C=C\F)c3c2F)C1 (centres undefined) | 0.2 µg/mL (≈ 0.566 µM) | 0.39 µg/mL (≈ 1.1 µM) | 0.78 µg/mL (≈ 2.21 µM) | 0.05 µg/mL (≈ 0.142 µM) | 
7 | CN1CCN(c2cc3c(cc2F)c(=O)c(C(=O)O)cn3/C=C\F)CC1 | 0.2 µg/mL (≈ 0.573 µM) | 1.56 µg/mL (≈ 4.47 µM) | 3.13 µg/mL (≈ 8.96 µM) | 0.025 µg/mL (≈ 0.0716 µM) | 
8 | CN1CCN(c2cc3c(cc2F)c(=O)c(C(=O)O)cn3/C=C/F)CC1 | 3.13 µg/mL (≈ 8.96 µM) | 6.25 µg/mL (≈ 17.9 µM) | 100 µg/mL (≈ 286 µM) | 0.2 µg/mL (≈ 0.573 µM) | 
9 | CN1CCN(c2c(F)cc3c(=O)c(C(=O)O)cn(/C=C/F)c3c2F)CC1 | 12.5 µg/mL (≈ 34 µM) | 12.5 µg/mL (≈ 34 µM) | > 50 µg/mL | 0.39 µg/mL (≈ 1.06 µM) | 1810 µM
10 | NC1CCN(c2c(F)cc3c(=O)c(C(=O)O)cn(/C=C/F)c3c2F)C1 (centres undefined) | 3.13 µg/mL (≈ 8.86 µM) | 1.56 µg/mL (≈ 4.42 µM) | 12.5 µg/mL (≈ 35.4 µM) | 0.2 µg/mL (≈ 0.566 µM) | 
11 | COc1c(N2CCC(N)C2)c(F)cc2c(=O)c(C(=O)O)cn(/C=C\F)c12 (centres undefined) | 0.39 µg/mL (≈ 1.07 µM) | 1.56 µg/mL (≈ 4.27 µM) | 1.56 µg/mL (≈ 4.27 µM) | 0.0125 µg/mL (≈ 0.0342 µM) | 
12 | COc1c(N2CCN(C)CC2)c(F)cc2c(=O)c(C(=O)O)cn(/C=C/F)c12 | 6.25 µg/mL (≈ 16.5 µM) | 25 µg/mL (≈ 65.9 µM) | 50 µg/mL (≈ 132 µM) | 0.2 µg/mL (≈ 0.527 µM) | 
13 | O=C(O)c1cn(C2CC2)c2cc(N3CCNCC3)c(F)cc2c1=O [CIPROFLOXACIN] | 0.2 µg/mL (≈ 0.604 µM) | 0.2 µg/mL (≈ 0.604 µM) | 0.78 µg/mL (≈ 2.35 µM) | ≤ 0.0063 µg/mL | 
14 | CN1CCN(c2c(F)cc3c(=O)c(C(=O)O)cn(CCF)c3c2F)CC1 [FLEROXACIN] | 0.39 µg/mL (≈ 1.06 µM) | 1.56 µg/mL (≈ 4.22 µM) | 3.13 µg/mL (≈ 8.47 µM) | 0.025 µg/mL (≈ 0.0677 µM) | 185 µM

Source: ChEMBL document CHEMBL1143629, “Synthesis and antibacterial activity of 1-(2-fluorovinyl)-7-substituted-4-quinolone-3-carboxylic acid derivatives, conformationally restricted analogues of fleroxacin” (J Med Chem, 2005)
